Test system: pulmonary NKT cells
Assay: Lung NKT cell subsets (CD4+, DN) by FACS after i.p. glycolipid in 2 week-old mice
Format: in vivo, mouse
Details: i.p. PI57 50 μg or α-GalCer 2 μg, lung 2 wks later
Description: In FIGS. 6A-6B, two-week-old BALB/c mice (n=6-8/group) (6A) or Tbet^−/− mice (6B) (n=4-6 per group) received 5 μg […] (cGal), 2 μg α-GalCer, or vehicle. After OVA sensitization and challenge, AHR was measured on day 44. In FIG. 6C, donor mice were treated with α-C-GalCer (5 μg) or vehicle i.p. NKT cells served as donors, as in FIG. 4A (n=4 per group). Lung resistance (left) and cell counts in BAL (right) were assessed. […] In FIG. 6E, mice received PI57 (50 μg), α-GalCer (2 μg), or vehicle i.p., and lungs were examined 1 or 14 days later for CD4 and CD8 expression. In FIG. 6F, absolute numbers of CD4^+ NKT and DN NKT subsets from 6E were assessed. In FIG. 6G, BALB/c mice (n=5-8/group) received PI57 or vehicle i.p. Lung resistance (left) and BAL cells (right) were assessed. In FIG. 6H, BALB/c mice treated with PI57 (50 μg), PBS30 (Sphingomonas glycolipid) (50 μg), or vehicle i.p. were assessed for AHR as in 6G. In FIG. 6I, donor mice were treated with PI57 (50 μg) or vehicle i.p. NKT cells served as donors as in FIG. 4A. Lung resistance (left) and BAL cells (right) were assessed (n=4 per group). […]
Cells were preincubated with anti-Fey blocking mAb (2.4G2) and washed before staining. […] Cells were analyzed on a BDCanto flow cytometer (BD Biosciences) using FlowJo 8.3.3 software (Tree Star, Inc.).

SMILES: CCCCCCCCCCCCCC(=O)OC[C@H]1O[C@H](O[C@H]2CC[C@@]3(C)C(=CC[C@H]4[C@@H]5CC[C@H]([C@H](C)CCCC(C)C)[C@@]5(C)CC[C@@H]43)C2)[C@H](O)[C@@H](O)[C@@H]1O [PI57, Cholesteryl 6-O-tetradecanoyl-α-D-glucopyranoside]
- number of NKT cells (CD4+ and DN subsets) in the lung: increased the total number of NKT cells, particularly the number of DN NKT cells

Reference: patent US9657046B2, “Methods for the treatment and prevention of inflammatory diseases” (Children's Medical Center Corporation, priority 2010, dated 2017)
